# Laboratory results reported in patent US20100016290A1, “AMORPHOUS POLYMORPH OF BAZEDOXIFENE ACETATE” (priority 2008, published 2010).
# What was measured:
# [1] = Mortar and pestle trials of Form A under mechanical stress (DSC, XRPD); type: physicochemical; details: for decrease in the Enthalpy of Fusion (Form A): after 10 min mixing in reaction solvent
# Description: Mortar and pestle trials were conducted to test the behavior of polymorph Form A under mechanical stress and to test and measure the kinetics of conversion of crystalline Form A to Form B under mechanical stress (possibly via amorphous Form C).
# [2] = Form C on ATR-IR sensor in ethanol vapor atmosphere; type: physicochemical; details: room temperature
# Source text: IR spectra (see, e.g. FIG. 2) were acquired by placing a few milligrams of the powder of the sample on a diamond sensor ATR (Attenuated Total Reflection) probe (Dicomp) using a React-IR 4000 system operated at 4 cm^−1 resolution and 128 scans between 650-4000 cm^−1.
# Some experiments were executed by creating an ethanol vapor atmosphere around the ATR sensor at room temperature.
Compound,decrease in the Enthalpy of Fusion (Form A) [1],amorphous Form C formed under mechanical stress ([1]; confirmed by powder XRD (FIG. 5)),polymorph form present ([2]; after two hours),transformation of polymorph form ([2]; on ATR sensor)
CC(=O)O.Cc1c(-c2ccc(O)cc2)n(Cc2ccc(OCCN3CCCCCC3)cc2)c2ccc(O)cc12 [Sample 8],About 50%,significant amount of amorphous Form C,–,–
"Cc1c(-c2ccc(O)cc2)n(Cc2ccc(OCCN3CCCCCC3)cc2)c2ccc(O)cc12 [Form C, 1-[4-(2-azepan-1-yl-ethoxy)-benzyl]-2-(4-hydroxy-phenyl)-3-methyl-1H-indol-5-ol acetic acid]",–,–,only polymorph Form B was present,transform rapidly into polymorph Form B
CC(=O)O.Cc1c(-c2ccc(O)cc2)n(Cc2ccc(OCCN3CCCCCC3)cc2)c2ccc(O)cc12 [Sample 7],About 30%,–,–,–
